Assay [1] relates to super sensitive Gram-negative Escherichia coli (E. coli) BAS849. Briefly: Antibacterial activity, microbroth dilution MIC, E. coli BAS849. The assay is classed as cell-based. The conditions noted are these: Escherichia coli; E. coli BAS849, microbroth dilution; read-out: MIC, BAS849. (In general: In broth dilution the organism is exposed to a series of concentrations in liquid medium.)

The subject of assay [2] is control Gram-negative E. coli 25922 strain. Briefly: Antibacterial activity, microbroth dilution MIC, E. coli 25922. The class given is cell-based, Escherichia coli. The conditions noted are these: Escherichia coli; E. coli 25922, microbroth dilution; read-out: MIC, 25922.
For assay [3], the system named is Gram-positive Staphylococcus aureus (S. aureus) 29213. The assay is described as follows: Antibacterial activity, microbroth dilution MIC, S. aureus 29213. The class given is cell-based. The following applies: Staphylococcus aureus; S. aureus 29213, microbroth dilution; read-out: MIC, 29213.
The test system of assay [4] is quinolone resistant E. coli LZ3111. Briefly: Antibacterial activity, MIC, quinolone resistant E. coli LZ3111. The class given is cell-based, Escherichia coli. The conditions noted are these: Escherichia coli, read-out: MIC, LZ3111. The text has this:
(§1) The antibacterial activity from a microbroth dilution method may be presented as the minimum inhibitory concentration (MIC in […]). The MIC value is the lowest concentration of a drug which prevents macroscopically visible bacterial growth under test conditions.
Mutations in these regions are known to confer a high level resistance to the quinolone class of antibiotics.

Assay [5] deals with Acinetobacter baumannii (A. baumannii) BAA747. Briefly: Antibacterial activity, MIC, A. baumannii BAA747. The following applies: Acinetobacter baumannii; A. baumannii BAA747; read-out: MIC BAA747. The assay is classed as cell-based.
For assay [6], the system named is Klebsiella pneumoniae (K. pneumoniae) 35657. Briefly: Antibacterial activity, MIC, K. pneumoniae 35657. The assay is classed as cell-based. The conditions noted are these: Klebsiella pneumoniae.
The test system of assay [7] is resistant A. baumannii MXX2240 (MDR clinical isolate). Briefly: Antibacterial activity, MIC, resistant A. baumannii MXX2240. The assay is classed as cell-based, Acinetobacter baumannii. The following applies: Acinetobacter baumannii, resistant A. baumannii MMX2240, MDR clinical isolate; read-out: MIC MMX2240.
The subject of assay [8] is resistant K. pneumoniae MXX1232 (MDR clinical isolate). Briefly: Antibacterial activity, MIC, resistant K. pneumoniae MXX1232. The assay is classed as cell-based, Klebsiella pneumoniae. The following applies: Klebsiella pneumoniae; resistant K. pneumoniae MMX1232, MDR clinical isolate; read-out: MIC MMX1232.
In assay [9] the test system is Pseudomonas aeruginosa (P. aeruginosa) 27853. The assay is described as follows: Antibacterial activity, MIC, P. aeruginosa 27853. The following applies: Pseudomonas aeruginosa, P. aeruginosa 27853; read-out: MIC 27853. The assay is classed as cell-based.
From the text: as §1
Antibacterial activity of test compounds against the Gram-negative bacterium Pseudomonas aeruginosa (P. aeruginosa) 27853 is shown in Table 5.

Values after ≈ are worked out from the molar mass of the structure shown. Where only a bound is given, the exact number is not on record here.

Broadly, the MIC is the smallest concentration in the dilution series that meets the test's criterion for growth inhibition. On to `CCc1c(-c2ccc(N3CCC4(CCNC4)C3)cc2)[nH]c(=O)c(C(=O)O)c1O` (stereo not drawn) [Cpd 321, 6-(4-(2,7-diazaspiro[4.4]nonan-2-yl)phenyl)-5-ethyl-4-hydroxy-2-oxo-1,2-dihydropyridine-3-carboxylic acid], for which the minimal inhibitory concentration (MIC) in assay [1] fell in the range of 1 to 3.5 mg/L (≈ 2.61 to 9.13 µM); in assay [2], 12.5 to 150 mg/L (≈ 32.6 to 391 µM); in assay [3], 12.5 to 150 mg/L (≈ 32.6 to 391 µM); in assay [4], 12.5 to 150 mg/L (≈ 32.6 to 391 µM); in [5] it was 12.5 to 150 mg/L (≈ 32.6 to 391 µM); in assay [6], 3.5 to 12.5 mg/L (≈ 9.13 to 32.6 µM). Further, the MIC in assay [7], in assay [8] and in [9] was 12.5 to 150 mg/L (≈ 32.6 to 391 µM) throughout.

For the compound `CCc1c(-c2ccc(N3CCC4(CCN(C)C4)C3)cc2)[nH]c(=O)c(C(=O)O)c1O` (stereo not drawn) [Cpd 322, 5-ethyl-4-hydroxy-6-(4-(7-methyl-2,7-diazaspiro[4.4]nonan-2-yl)phenyl)-2-oxo-1,2-dihydropyridine-3-carboxylic acid], the MIC was < 1 mg/L in assay [1]; < 1 mg/L in assay [2]; 3.5 to 12.5 mg/L (≈ 8.81 to 31.4 µM) in assay [3]; 12.5 to 150 mg/L (≈ 31.4 to 377 µM) in assay [4]; 1 to 3.5 mg/L (≈ 2.52 to 8.81 µM) in assay [5]; 1 to 3.5 mg/L (≈ 2.52 to 8.81 µM) in [6]. Moreover, the MIC lay in the range of 12.5 to 150 mg/L (≈ 31.4 to 377 µM) in assay [7], 12.5 to 150 mg/L (≈ 31.4 to 377 µM) in [8] and 3.5 to 12.5 mg/L (≈ 8.81 to 31.4 µM) in assay [9].

With `CCc1c(-c2ccc(N3CC4(CCCN4)C3)cc2)[nH]c(=O)c(C(=O)O)c1O` [Cpd 323, 6-(4-(2,5-diazaspiro[3.4]octan-2-yl)phenyl)-5-ethyl-4-hydroxy-2-oxo-1,2-dihydropyridine-3-carboxylic acid], the MIC in assay [1] fell in the range of 1 to 3.5 mg/L (≈ 2.71 to 9.47 µM); in assay [2], 3.5 to 12.5 mg/L (≈ 9.47 to 33.8 µM); in [3], 12.5 to 150 mg/L (≈ 33.8 to 406 µM); in [4], 3.5 to 12.5 mg/L (≈ 9.47 to 33.8 µM); in [5] it was 12.5 to 150 mg/L (≈ 33.8 to 406 µM); in [6] it was 12.5 to 150 mg/L (≈ 33.8 to 406 µM). In addition, the MIC in assay [7], in [8] and in [9] was 12.5 to 150 mg/L (≈ 33.8 to 406 µM) each time.

Take `CCc1c(-c2ccc(N3CC4(CNC4)C3)cc2)[nH]c(=O)c(C(=O)O)c1O` [Cpd 324, 6-(4-(2,6-diazaspiro[3.3]heptan-2-yl)phenyl)-5-ethyl-4-hydroxy-2-oxo-1,2-dihydropyridine-3-carboxylic acid]: the MIC in assay [1] lay in the range of 3.5 to 12.5 mg/L (≈ 9.85 to 35.2 µM); in assay [2], 12.5 to 150 mg/L (≈ 35.2 to 422 µM); in assay [3], 12.5 to 150 mg/L (≈ 35.2 to 422 µM); in [4] it was 12.5 to 150 mg/L (≈ 35.2 to 422 µM); in assay [5], 12.5 to 150 mg/L (≈ 35.2 to 422 µM); in assay [6], 12.5 to 150 mg/L (≈ 35.2 to 422 µM). In addition, the MIC in [7], in assay [8] and in [9] was 12.5 to 150 mg/L (≈ 35.2 to 422 µM) each time.

Regarding `CCNc1ccc(-c2[nH]c(=O)c(C(=O)O)c(O)c2CC)cc1` [Cpd 325, 5-ethyl-6-(4-(ethylamino)phenyl)-4-hydroxy-2-oxo-1,2-dihydropyridine-3-carboxylic acid], the minimum inhibitory concentration (MIC) was < 1 mg/L in assay [1]; 3.5 to 12.5 mg/L (≈ 11.6 to 41.3 µM) in assay [2]; 12.5 to 150 mg/L (≈ 41.3 to 496 µM) in assay [3]; 12.5 to 150 mg/L (≈ 41.3 to 496 µM) in assay [4]; 3.5 to 12.5 mg/L (≈ 11.6 to 41.3 µM) in assay [5]; 3.5 to 12.5 mg/L (≈ 11.6 to 41.3 µM) in [6]. In addition, the MIC in assay [7], in [8] and in assay [9] was 12.5 to 150 mg/L (≈ 41.3 to 496 µM) in each case.

On to `CCc1c(-c2ccc(NC)cc2)[nH]c(=O)c(C(=O)O)c1O` [Cpd 326, 5-ethyl-4-hydroxy-6-(4-(methylamino)phenyl)-2-oxo-1,2-dihydropyridine-3-carboxylic acid], for which the MIC was < 1 mg/L in assay [1]; 3.5 to 12.5 mg/L (≈ 12.1 to 43.4 µM) in assay [2]; 12.5 to 150 mg/L (≈ 43.4 to 520 µM) in assay [3]; 12.5 to 150 mg/L (≈ 43.4 to 520 µM) in assay [4]; 1 to 3.5 mg/L (≈ 3.47 to 12.1 µM) in [5]; 3.5 to 12.5 mg/L (≈ 12.1 to 43.4 µM) in assay [6]. Besides, the results for the minimal inhibitory concentration (MIC) in [7], in assay [8] and in assay [9] were 3.5 to 12.5 mg/L (≈ 12.1 to 43.4 µM), 12.5 to 150 mg/L (≈ 43.4 to 520 µM) and 12.5 to 150 mg/L (≈ 43.4 to 520 µM), respectively.

Regarding `CN(C)c1ccc(-c2[nH]c(=O)c(C(=O)O)c(O)c2CC=O)cc1` [Cpd 327, 6-(4-(dimethylamino)phenyl)-4-hydroxy-2-oxo-5-(2-oxoethyl)-1,2-dihydropyridine-3-carboxylic acid], the minimal inhibitory concentration (MIC) in assay [1] lay in the range of 3.5 to 12.5 mg/L (≈ 11.1 to 39.5 µM); in assay [2], 12.5 to 150 mg/L (≈ 39.5 to 474 µM); in assay [3], 12.5 to 150 mg/L (≈ 39.5 to 474 µM); in [4] it was 12.5 to 150 mg/L (≈ 39.5 to 474 µM); in assay [5], 12.5 to 150 mg/L (≈ 39.5 to 474 µM); in assay [6] it was 12.5 to 150 mg/L (≈ 39.5 to 474 µM). The minimal inhibitory concentration (MIC) in assay [7], in [8] and in assay [9] was 12.5 to 150 mg/L (≈ 39.5 to 474 µM) each time.

Values taken from patent publication US9650395B2, “Antibacterial compounds and methods for use” (PTC Therapeutics, Inc., priority 2011, dated 2017).
